From paper PMC12845239, “Development of Novel Proline- and Pipecolic Acid-Based Allosteric Inhibitors of Dengue and Zika Virus NS2B/NS3 Protease” (Pharmaceuticals, 2025)
Like-named read-outs stand apart in the source and are kept apart here.

Legend:
DENV-2 NS2B-NS3 protease = DENV-2 NS2B-NS3 protease (Dengue virus type 2, UniProt P29990); assay: DENV2 Reporter Gene Assay (DENV2proHeLa); type: cell-based; conditions: for inhibition at 25 µM: M-HeLa, read-out: DENV2 proHeLa % inhibition at 25 µM; for EC50: read-out: DENV2 proHeLa EC50
Sequence of DENV-2 NS2B-NS3 protease (P29990 1346-1653): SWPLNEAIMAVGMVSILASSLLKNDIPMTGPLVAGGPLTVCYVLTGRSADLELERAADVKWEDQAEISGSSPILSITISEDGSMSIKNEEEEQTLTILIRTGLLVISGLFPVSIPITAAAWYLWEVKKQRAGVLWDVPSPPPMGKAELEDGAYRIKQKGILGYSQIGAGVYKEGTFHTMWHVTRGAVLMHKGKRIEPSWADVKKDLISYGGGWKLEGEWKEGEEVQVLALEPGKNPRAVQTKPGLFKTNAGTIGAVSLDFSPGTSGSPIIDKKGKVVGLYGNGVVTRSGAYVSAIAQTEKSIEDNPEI
Procedure: The DENV2proHeLa assay was performed as published previously. Stable cells were seeded into 96-well plates with a density of 2 × 10^4 cells per well and treated immediately with inhibitors of the DENV protease in a final volume of 100 μL. After incubation for 24 h at 37 °C, the medium was removed, and cells were lysed by adding 25 μL of lysis buffer (Promega) for 15 min at room temperature. Luciferase activity was recorded using a FLUOstar omega plate reader (BMG Labtech, Ortenberg, Germany) with injections of 100 μL per well of coelenterazine (2.75 μM in PBS). Luminescence was recorded for 5 s. Each concentration was assayed in triplicate. The percentage of inhibition was calculated in relation to the untreated control. For EC50 calculations, data were fitted and calculated with Prism 6.1 (GraphPad Software, Inc., San Diego, CA, USA) using a 4-parameter nonlinear dose-response curve with background subtraction (wells without cells).

ZIKV NS2B/NS3 = ZIKV NS2B/NS3 (Zika virus, UniProt A0A024B7W1, R1467A/R1531G); assay: ZIKV protease relative inhibition assay (fluorometric, Bz-Nle-Lys-Arg-Arg-AMC 10 µM); type: biochemical; conditions: 50 µM inhibitor, ZIKV protease 10 nM, substrate 10 µM
DENV NS2B/NS3 = biological target: T1, DENV NS2B/NS3 (Dengue virus type 2, UniProt P29990); assay: biochemical; conditions: for inhibition at 50 µM: read-out: DENV % inhibition at 50 µM; for inhibition at 50 µM / DENV % inhibition at 50 µM: 50 µM inhibitor, DENV-2 protease 100 nM, substrate 50 µM
T1 construct: the hydrophilic 40-residue core domain of NS2B (NS2B(H)-NS3pro); The used DENV protease construct contains the protease domain of NS3
T1 sequence (P29990 1398-1437): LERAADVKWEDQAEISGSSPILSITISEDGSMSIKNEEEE
T1 sequence (P29990 1476-1653): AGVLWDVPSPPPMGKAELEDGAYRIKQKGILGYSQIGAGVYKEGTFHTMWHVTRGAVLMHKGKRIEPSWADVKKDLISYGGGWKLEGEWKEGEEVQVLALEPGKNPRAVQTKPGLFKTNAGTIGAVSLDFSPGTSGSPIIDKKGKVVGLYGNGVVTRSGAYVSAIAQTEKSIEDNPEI

serine protease of DENV = tested on: serine protease of DENV; set-up: method as in PMID 31769670; conditions: cited from earlier work
serine protease of ZIKV = conditions: cited from earlier work
[1] = 25 µM, HeLa reporter cells, 24 h

Row | Compound | inhibition at 25 µM (DENV-2 NS2B-NS3 protease; [1]) | ZIKV % inhibition at 50 µM (ZIKV NS2B/NS3) | IC50 (DENV NS2B/NS3) | inhibition at 50 µM (DENV NS2B/NS3) | other results
1 | O=C(Nc1nc2cc(O)c(O)cc2s1)[C@@H]1CCCN1S(=O)(=O)c1ccccc1C(F)(F)F [Compound 2] | 27.7% | 49.6% | 5.1 ± 0.29 µM |  | 
2 | O=C(Nc1nc2cc(O)c(O)cc2s1)[C@@H]1CCCN1S(=O)(=O)c1cccc(C(F)(F)F)c1 [Compound 3] | 46.6% | 36.6% | 5 ± 0.29 µM |  | 
3 | O=C(Nc1nc2cc(O)c(O)cc2s1)[C@@H]1CCCN1S(=O)(=O)c1ccc(C(F)(F)F)cc1 [Compound 4] | 19.5% | 35.4% | 5.6 ± 0.39 µM |  | 
4 | O=C(Nc1nc2cc(O)c(O)cc2s1)[C@@H]1CCCN1S(=O)(=O)c1ccccc1[N+](=O)[O-] [Compound 5, (S)-N-(5,6-Dihydroxybenzo[d]thiazol-2-yl)-1-((2-nitrophenyl)sulfonyl)pyrrolidine-2-carboxamide] | 18.5% |  | 8 ± 0.52 µM |  | 
5 | O=C(Nc1nc2cc(O)c(O)cc2s1)[C@@H]1CCCN1S(=O)(=O)c1cccc([N+](=O)[O-])c1 [Compound 6, (S)-N-(5,6-Dihydroxybenzo[d]thiazol-2-yl)-1-((3-nitrophenyl)sulfonyl)pyrrolidine-2-carboxamide] | 23.5% |  | 6.4 ± 0.52 µM |  | 
6 | O=C(Nc1nc2cc(O)c(O)cc2s1)[C@@H]1CCCN1S(=O)(=O)c1ccc([N+](=O)[O-])cc1 [Compound 7, (S)-N-(5,6-Dihydroxybenzo[d]thiazol-2-yl)-1-((4-nitrophenyl)sulfonyl)pyrrolidine-2-carboxamide, reference compound] | 43% |  | 5 ± 0.37 µM |  | IC50 (serine protease of DENV): 8.58 µM; IC50 (serine protease of ZIKV): 0.93 µM
7 | O=C(Nc1nc2cc(O)c(O)cc2s1)[C@H]1CCCN1S(=O)(=O)c1ccccc1[N+](=O)[O-] [Compound 14, (R)-N-(5,6-Dihydroxybenzo[d]thiazol-2-yl)-1-((2-nitrophenyl)sulfonyl)pyrrolidine-2-carboxamide] |  | 68.5% |  | 13.5% | inhibition at 25 µM (DENV-2 NS2B-NS3 protease): 17.7%
8 | O=C(Nc1nc2cc(O)c(O)cc2s1)[C@H]1CCCN1S(=O)(=O)c1cccc([N+](=O)[O-])c1 [Compound 15, (R)-N-(5,6-Dihydroxybenzo[d]thiazol-2-yl)-1-((3-nitrophenyl)sulfonyl)pyrrolidine-2-carboxamide] | 26.9% | 54.6% |  | 16.9% | 
9 | O=C(Nc1nc2cc(O)c(O)cc2s1)[C@H]1CCCN1S(=O)(=O)c1ccc([N+](=O)[O-])cc1 [Compound 16, (R)-N-(5,6-Dihydroxybenzo[d]thiazol-2-yl)-1-((4-nitrophenyl)sulfonyl)pyrrolidine-2-carboxamide] | 51.3% |  |  | 40.7% | 
10 | O=C(Nc1nc2cc(O)c(O)cc2s1)[C@@H]1CCCCN1S(=O)(=O)c1ccccc1C(F)(F)F [Compound 17, (S)-N-(5,6-Dihydroxybenzo[d]thiazol-2-yl)-1-((2-(trifluoromethyl)phenyl)sulfonyl)piperidine-2-carboxamide] | 41.7% | 57.2% |  | 58.7% | 
11 | O=C(Nc1nc2cc(O)c(O)cc2s1)[C@@H]1CCCCN1S(=O)(=O)c1cccc(C(F)(F)F)c1 [Compound 18, (S)-N-(5,6-Dihydroxybenzo[d]thiazol-2-yl)-1-((3-(trifluoromethyl)phenyl)sulfonyl)piperidine-2-carboxamide] |  | 42.2% |  | 55.9% | EC50 (DENV-2 NS2B-NS3 protease; HeLa reporter cells, 24 h): 12.8 ± 0.99 µM
12 | O=C(Nc1nc2cc(O)c(O)cc2s1)[C@@H]1CCCCN1S(=O)(=O)c1ccc(C(F)(F)F)cc1 [Compound 19] |  |  |  | 51.3% | EC50 (DENV-2 NS2B-NS3 protease; HeLa reporter cells, 24 h): 20.3 ± 1.5 µM
13 | O=C(Nc1nc2cc(O)c(O)cc2s1)[C@@H]1CCCCN1S(=O)(=O)c1ccccc1[N+](=O)[O-] [Compound 20, (S)-N-(5,6-Dihydroxybenzo[d]thiazol-2-yl)-1-((2-nitrophenyl)sulfonyl)piperidine-2-carboxamide] | 31.4% |  |  | 29.6% | 
14 | O=C(Nc1nc2cc(O)c(O)cc2s1)[C@@H]1CCCCN1S(=O)(=O)c1cccc([N+](=O)[O-])c1 [Compound 21, (S)-N-(5,6-Dihydroxybenzo[d]thiazol-2-yl)-1-((3-nitrophenyl)sulfonyl)piperidine-2-carboxamide] |  |  |  |  | EC50 (DENV-2 NS2B-NS3 protease; HeLa reporter cells, 24 h): 22 ± 1.5 µM; DENV % inhibition at 50 µM (DENV NS2B/NS3): n.i.
15 | O=C(Nc1nc2cc(O)c(O)cc2s1)[C@@H]1CCCCN1S(=O)(=O)c1ccc([N+](=O)[O-])cc1 [Compound 22, (S)-N-(5,6-Dihydroxybenzo[d]thiazol-2-yl)-1-((4-nitrophenyl)sulfonyl)piperidine-2-carboxamide] |  |  |  | 59.8% | EC50 (DENV-2 NS2B-NS3 protease; HeLa reporter cells, 24 h): 13.4 ± 1.2 µM
16 | O=C(Nc1nc2cc(O)c(O)cc2s1)[C@H]1CCCCN1S(=O)(=O)c1ccccc1C(F)(F)F [Compound 23, (R)-N-(5,6-Dihydroxybenzo[d]thiazol-2-yl)-1-((2-(trifluoromethyl)phenyl)sulfonyl)piperidine-2-carboxamide] | 18.5% | 36.2% | 41.8 ± 2.2 µM |  | 
17 | O=C(Nc1nc2cc(O)c(O)cc2s1)[C@H]1CCCCN1S(=O)(=O)c1cccc(C(F)(F)F)c1 [Compound 24, (R)-N-(5,6-Dihydroxybenzo[d]thiazol-2-yl)-1-((3-(trifluoromethyl)phenyl)sulfonyl)piperidine-2-carboxamide] |  | 34.5% | 30.8 ± 1.7 µM |  | EC50 (DENV-2 NS2B-NS3 protease; HeLa reporter cells, 24 h): 5.2 ± 0.43 µM
18 | O=C(Nc1nc2cc(O)c(O)cc2s1)[C@H]1CCCCN1S(=O)(=O)c1ccc(C(F)(F)F)cc1 [Compound 25] | 38% | 48.4% | 22.3 ± 1.4 µM |  | 
19 | O=C(Nc1nc2cc(O)c(O)cc2s1)[C@H]1CCCCN1S(=O)(=O)c1ccccc1[N+](=O)[O-] [Compound 26, (R)-N-(5,6-Dihydroxybenzo[d]thiazol-2-yl)-1-((2-nitrophenyl)sulfonyl)piperidine-2-carboxamide] | 9.5% |  | 38.9 ± 4 µM |  | 
20 | O=C(Nc1nc2cc(O)c(O)cc2s1)[C@H]1CCCCN1S(=O)(=O)c1cccc([N+](=O)[O-])c1 [Compound 27, (R)-N-(5,6-Dihydroxybenzo[d]thiazol-2-yl)-1-((3-nitrophenyl)sulfonyl)piperidine-2-carboxamide] |  |  | 35 ± 2.1 µM |  | EC50 (DENV-2 NS2B-NS3 protease; HeLa reporter cells, 24 h): 5.1 ± 0.53 µM
21 | O=C(Nc1nc2cc(O)c(O)cc2s1)[C@H]1CCCCN1S(=O)(=O)c1ccc([N+](=O)[O-])cc1 [Compound 28, (R)-N-(5,6-Dihydroxybenzo[d]thiazol-2-yl)-1-((4-nitrophenyl)sulfonyl)piperidine-2-carboxamide] |  |  | 27 ± 1.6 µM |  | EC50 (DENV-2 NS2B-NS3 protease; HeLa reporter cells, 24 h): 9 ± 0.4 µM
22 | (S)-N-(5,6-Dihydroxybenzo[d]thiazol-2-yl)-1-(2-(trifluoromethyl)benzoyl)pyrrolidine-2-carboxamide [Compound 8] |  | n.i. |  |  | DENV2 proHeLa % inhibition at 25 µM (DENV-2 NS2B-NS3 protease; [1]): n.i.; DENV % inhibition at 50 µM (DENV NS2B/NS3): n.i.
23 | (S)-N-(5,6-Dihydroxybenzo[d]thiazol-2-yl)-1-(3-(trifluoromethyl)benzoyl)pyrrolidine-2-carboxamide [Compound 9] |  | 56.5% |  |  | DENV2 proHeLa % inhibition at 25 µM (DENV-2 NS2B-NS3 protease; [1]): 42.2%; DENV % inhibition at 50 µM (DENV NS2B/NS3): 55.9%
24 | (S)-N-(5,6-Dihydroxybenzo[d]thiazol-2-yl)-1-(4(trifluoromethyl)benzoyl)pyrrolidine-2-carboxamide [Compound 10] |  | 39.2% |  |  | DENV2 proHeLa % inhibition at 25 µM (DENV-2 NS2B-NS3 protease; [1]): 15.4%; DENV % inhibition at 50 µM (DENV NS2B/NS3): 16.8%
